The record followed here is ChEMBL document CHEMBL4261543, “Integrating docking scores and key interaction profiles to improve the accuracy of molecular docking: towards novel B-RafV600E inhibitors” (Medchemcomm, 2017).

Chain of Serine/threonine-protein kinase B-raf (P15056 2-766 V600E limits assumed): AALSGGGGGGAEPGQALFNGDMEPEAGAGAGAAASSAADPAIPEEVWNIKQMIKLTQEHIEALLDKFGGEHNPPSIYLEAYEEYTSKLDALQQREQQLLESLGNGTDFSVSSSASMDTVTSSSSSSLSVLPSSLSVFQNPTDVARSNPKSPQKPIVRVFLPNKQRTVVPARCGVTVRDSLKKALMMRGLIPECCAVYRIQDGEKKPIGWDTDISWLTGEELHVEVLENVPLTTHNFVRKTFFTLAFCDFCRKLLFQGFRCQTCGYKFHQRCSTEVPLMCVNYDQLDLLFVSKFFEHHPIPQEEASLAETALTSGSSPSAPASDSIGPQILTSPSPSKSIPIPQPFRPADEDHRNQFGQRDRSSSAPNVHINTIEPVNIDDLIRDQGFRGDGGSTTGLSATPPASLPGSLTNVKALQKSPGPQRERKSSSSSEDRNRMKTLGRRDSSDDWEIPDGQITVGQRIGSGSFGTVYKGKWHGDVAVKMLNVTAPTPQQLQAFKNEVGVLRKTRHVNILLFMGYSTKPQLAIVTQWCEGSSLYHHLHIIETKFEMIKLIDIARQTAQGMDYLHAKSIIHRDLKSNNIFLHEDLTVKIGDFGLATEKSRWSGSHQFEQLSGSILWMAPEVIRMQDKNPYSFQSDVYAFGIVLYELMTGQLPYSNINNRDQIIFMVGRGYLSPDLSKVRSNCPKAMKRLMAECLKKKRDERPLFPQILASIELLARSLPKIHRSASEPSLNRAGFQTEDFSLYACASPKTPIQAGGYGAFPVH

In the first experiment the test system is Serine/threonine-protein kinase B-raf (Homo sapiens), P15056 [V600E]. Description: Inhibition of B-Raf V600E mutant (unknown origin) at 10 uM using fluorescein-MAP2K1 as substrate after 1 hr by electrophoretic assay relative to control.
Chain of Serine/threonine-protein kinase B-raf (Homo sapiens), P15056 [V600E] (P15056 whole entry V600E): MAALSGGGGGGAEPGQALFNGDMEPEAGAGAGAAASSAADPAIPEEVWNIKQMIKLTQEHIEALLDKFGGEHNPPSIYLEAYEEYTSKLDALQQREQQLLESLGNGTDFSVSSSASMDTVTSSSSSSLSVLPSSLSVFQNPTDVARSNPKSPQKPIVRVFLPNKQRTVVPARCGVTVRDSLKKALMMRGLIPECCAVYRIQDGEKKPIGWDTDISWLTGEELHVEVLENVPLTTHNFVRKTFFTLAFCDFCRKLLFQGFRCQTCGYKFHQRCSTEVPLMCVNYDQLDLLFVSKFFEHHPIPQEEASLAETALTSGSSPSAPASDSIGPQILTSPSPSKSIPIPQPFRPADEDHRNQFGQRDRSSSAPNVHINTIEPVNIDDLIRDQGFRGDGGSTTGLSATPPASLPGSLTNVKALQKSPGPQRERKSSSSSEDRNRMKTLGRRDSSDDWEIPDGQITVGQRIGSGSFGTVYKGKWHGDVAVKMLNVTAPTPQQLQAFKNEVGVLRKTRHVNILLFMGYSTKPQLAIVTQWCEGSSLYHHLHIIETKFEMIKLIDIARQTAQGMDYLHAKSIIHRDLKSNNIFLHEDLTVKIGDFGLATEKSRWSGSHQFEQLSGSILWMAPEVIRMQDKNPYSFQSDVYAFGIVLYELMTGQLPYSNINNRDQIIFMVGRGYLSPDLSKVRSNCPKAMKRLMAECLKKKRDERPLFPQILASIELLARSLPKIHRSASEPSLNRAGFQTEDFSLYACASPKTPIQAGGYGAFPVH
As to `COCCOc1ccc(Nc2ncc3cc(-c4ccncc4)ccc3n2)cc1`, the inhibition was over 40%.

In the case of `CCCS(=O)(=O)Nc1ccc(F)c(-c2cc3cnccc3cn2)c1F`, the inhibition is over 40%.

For the compound `CC(C)c1nc(-c2cccc(NS(=O)(=O)c3cccc(F)c3)c2)c(-c2ccnc(NCC(N)=O)n2)s1`, the inhibition is over 40%.

Consider `CCCS(=O)(=O)Nc1ccc(F)c(C(=O)Nc2ccc(N)nc2)c1F`, for which the inhibition is over 40%.

With `CCCS(=O)(=O)Nc1ccc(F)c(-c2cc3cnccc3c(=O)n2C)c1F`, the inhibition was over 40%.

Consider `C[C@@H](NC(=O)[C@H]1CCCCN1C)c1ccc(Nc2ncc3cc(-c4ccncc4)ccc3n2)cc1`, for which the inhibition is over 40%.

In the case of `CCCS(=O)(=O)Nc1ccc(F)c(-c2cc3cnc(NC)nc3n(C)c2=O)c1F`, the inhibition was over 40%.

Compound `CCCS(=O)(=O)Nc1ccc(F)c(NC(=O)c2cccc3c(N)ncnc23)c1F` displayed an inhibition of over 40%.

In the case of `COCCNC(=O)c1ccc(Nc2ncc3cc(-c4ccc(F)nc4)ccc3n2)cc1`, the inhibition was over 40%.

Regarding `Nc1ncnc2c(C(=O)Nc3c(Cl)ccc(NS(=O)(=O)CCCF)c3F)cccc12`, the inhibition was over 40%.

In turn, `COCCNC(=O)c1ccc(Nc2ncc3cc(-c4ccncc4)ccc3n2)cc1F` yielded an inhibition of over 40%.

Regarding `Nc1ncnc2c(C(=O)Nc3c(Cl)ccc(NS(=O)(=O)CCCF)c3F)csc12`, the inhibition was over 40%.

Turning to `CCCS(=O)(=O)Nc1ccc(F)c(NC(=O)c2csc3c(N)ncnc23)c1F`, the inhibition is over 40%.

In turn, `COCCNC(=O)c1ccc(Nc2ncc3cc(-c4cccnc4)ccc3n2)cc1` yielded an inhibition of over 40%.

In turn, `COCCNC(=O)c1ccc(Nc2ncc3cc(-c4ccncc4C)ccc3n2)cc1` registered an inhibition of over 40%.

In the case of `CCCS(=O)(=O)Nc1ccc(Cl)c(C(=O)Nc2cnc3[nH]ccc3c2)c1F`, the inhibition was over 40%.

For `C[C@@H](NC(=O)C1CCNCC1)c1ccc(Nc2ncc3cc(-c4ccncc4)ccc3n2)cc1`, the inhibition is over 40%.

In turn, `COCCNC(=O)c1ccc(Nc2ncc3cc(-c4ccc(OC)nc4)ccc3n2)cc1` displayed an inhibition of over 40%.

Turning to `CC(C)(C)c1nc(-c2cccc(NS(=O)(=O)c3cc(F)ccc3F)c2)c(-c2ccnc(N)n2)s1`, the inhibition is over 40%.

As to `CCCS(=O)(=O)Nc1ccc(F)c(NC(=O)Nc2cc(NC)ncn2)c1F`, the inhibition is over 40%.

For the compound `CN(C)CCNC(=O)c1ccc(Nc2ncc3cc(-c4ccncc4)ccc3n2)cc1`, the inhibition is over 40%.

Compound `CCCS(=O)(=O)Nc1ccc(C)c(-c2ccc3nc(N)ncc3c2)c1` showed an inhibition of over 40%.

For the compound `CCCS(=O)(=O)Nc1ccc(F)c(-c2cc3cncc(Br)c3cn2)c1F`, the inhibition is over 40%.

In turn, `CC(=O)N[C@H](C)c1ccc(Nc2ncc3cc(-c4ccncc4)c(C)cc3n2)cc1` gave an inhibition of over 40%.

`CCCS(=O)(=O)Nc1ccc(F)c(C(=O)Nc2cnc3[nH]cc(C)c3c2)c1F` gave an inhibition of over 40%.

For `C[C@@H](NC1=CC(=O)CNC1)c1ccc(Nc2ncc3cc(-c4ccncc4)ccc3n2)cc1`, the inhibition is over 40%.

The compound `CC(C)c1nc(-c2cccc(NS(=O)(=O)c3c(F)cccc3F)c2)c(-c2ccnc(N)n2)s1` displayed an inhibition of over 40%.

As to `c1cc(-c2ccc3nc(Nc4ccc(OCCN5CCCC5)cc4)ncc3c2)ccn1`, the inhibition is over 40%.

Take `CCCS(=O)(=O)Nc1ccc(F)c(C(=O)Nc2cnc3[nH]cc(N(C)C)c3c2)c1F`: the inhibition is over 40%.

As for `CC(C)(C)c1nc(-c2cccc(NS(=O)(=O)c3c(F)cccc3F)c2F)c(-c2ccnc(N)n2)s1`, the inhibition was over 40%.

`CN1CCCC1CCNC(=O)c1ccc(Nc2ncc3cc(-c4ccncc4)ccc3n2)cc1` (stereo unspecified) yielded an inhibition of over 40%.

Compound `O=C(NCCN1CCCC1)c1ccc(Nc2ncc3cc(-c4ccncc4)ccc3n2)cc1` gave an inhibition of over 40%.

`COCCNC(=O)c1ccc(Nc2ncc3cc(-c4ccnc(C)c4)ccc3n2)cc1`: the inhibition was over 40%.

Regarding `CCCS(=O)(=O)Nc1ccc(F)c(-c2cc3cnc(NCC4CC4)nc3n(C)c2=O)c1F`, the inhibition was over 40%.

Compound `CCCS(=O)(=O)Nc1ccc(F)c(C(=O)Nc2cnc3[nH]ccc3c2)c1F` registered an inhibition of over 40%.

For `CC(C)c1nc(-c2cccc(NS(=O)(=O)c3c(F)cccc3F)c2)c(-c2ccnc(NCCS(C)(=O)=O)n2)s1`, the inhibition is over 40%.

The compound `CCCS(=O)(=O)Nc1ccc(F)c(NC(=O)Nc2cc(N)ncn2)c1F` had an inhibition of over 40%.

Turning to `C[C@@H](NC(=O)[C@H]1CCCCN1CCO)c1ccc(Nc2ncc3cc(-c4ccncc4)ccc3n2)cc1`, the inhibition is over 40%.

On to `CCCS(=O)(=O)Nc1ccc(F)c(-c2cc3cnc(NCCO)nc3n(C)c2=O)c1F`, for which the inhibition is over 40%.

The compound `CCCS(=O)(=O)Nc1ccc(F)c(-c2cc3cnc(NC4CCOCC4)nc3n(C)c2=O)c1F` had an inhibition of over 40%.

In turn, `CCCS(=O)(=O)Nc1ccc(F)c(C(=O)Nc2cnc3[nH]cc(Br)c3c2)c1F` returned an inhibition of over 40%.

`CCCS(=O)(=O)Nc1ccc(F)c(-c2cc3cnccc3n(CCc3ccccc3)c2=O)c1F`: the inhibition was over 40%.

Consider `CCCS(=O)(=O)Nc1ccc(Cl)c(NC(=O)c2cccc3c(N)ncnc23)c1F`, for which the inhibition is over 40%.

Compound `CC(C)c1nc(-c2cccc(NS(=O)(=O)c3cccc(F)c3)c2)c(-c2ccnc(NCCCN(C)C)n2)s1` gave an inhibition of over 40%.

In the case of `COCCNC(=O)c1ccc(Nc2ncc3cc(-c4ccncc4OC)ccc3n2)cc1`, the inhibition is over 40%.

`CC(C)c1nc(-c2ccc(F)c(NS(=O)(=O)c3c(F)cccc3F)c2)c(-c2ccnc(NCCS(C)(=O)=O)n2)s1`: the inhibition is over 40%.

`CC(=O)Nc1ccc(Nc2ncc3cc(-c4ccncc4)ccc3n2)cc1`: the inhibition is over 40%.

Compound `CCCS(=O)(=O)Nc1ccc(F)c(NC(=O)N(C)c2cc(N)ncn2)c1F` showed an inhibition of over 40%.

`CCCS(=O)(=O)Nc1ccc(F)c(C(=O)c2c[nH]c3ncc(-c4ccc(Cl)cc4)cc23)c1F` returned an inhibition of over 40%.

`CCCS(=O)(=O)Nc1ccc(F)c(-c2cc3cnc(Nc4cccnc4)nc3n(C)c2=O)c1F`: the inhibition is over 40%.

The compound `CCCS(=O)(=O)Nc1ccc(F)c(C(=O)Nc2cnc3[nH]cc(OC)c3c2)c1F` yielded an inhibition of over 40%.

Take `COCCNC(=O)c1ccc(Nc2ncc3cc(-c4ccccc4)ccc3n2)cc1`: the inhibition was over 40%.

The compound `CCCS(=O)(=O)Nc1ccc(F)c(C(=O)Nc2cnc3[nH]cnc3c2)c1C` registered an inhibition of over 40%.

On to `CCCS(=O)(=O)Nc1ccc(F)c(NC(=O)Nc2ncnc3[nH]ncc23)c1F`, for which the inhibition is over 40%.

`COCCNC(=O)c1ccc(Nc2ncc3cc(-c4cncnc4)ccc3n2)cc1` displayed an inhibition of over 40%.

The compound `CCCS(=O)(=O)Nc1ccc(Cl)c(NC(=O)c2csc3c(N)ncnc23)c1F` returned an inhibition of over 40%.

`CCCS(=O)(=O)Nc1ccc(F)c(C(=O)Nc2cnc3[nH]nc(OC)c3c2)c1F`: the inhibition was over 40%.

For `CCCS(=O)(=O)Nc1ccc(F)c(NC(=O)c2csc3c(N)ncnc23)c1Cl`, the inhibition was over 40%.

`CCCS(=O)(=O)Nc1ccc(F)c(-c2cc3cnc(NCCCO)nc3n(C)c2=O)c1F` returned an inhibition of over 40%.

In turn, `CCCS(=O)(=O)Nc1ccc(F)c(-c2ccc3cc(N)ncc3c2)c1F` displayed an inhibition of over 40%.

Regarding `CCCS(=O)(=O)Nc1ccc(F)c(NC(=O)c2cccc3c(N)ncnc23)c1Cl`, the inhibition was over 40%.

With `CCCS(=O)(=O)Nc1ccc(F)c(C(=O)Nc2cnc3[nH]ccc3c2)c1C`, the inhibition was over 40%.

With `COCCNC(=O)c1ccc(Nc2ncc3cc(-c4ccncc4Cl)ccc3n2)cc1`, the inhibition is over 40%.

On to `CCCS(=O)(=O)Nc1ccc(F)c(-c2ccc3ccncc3n2)c1F`, for which the inhibition was over 40%.

`CCCS(=O)(=O)Nc1ccc(F)c(-c2ccc3nc(N)ncc3c2)c1F`: the inhibition was over 40%.

In the case of `CCCS(=O)(=O)Nc1ccc(F)c(-c2cc3cnc(Nc4cnn(C)c4)nc3n(C)c2=O)c1F`, the inhibition was over 40%.

`CCCS(=O)(=O)Nc1ccc(F)c(-c2cc3cnc(N)nc3n(C)c2=O)c1F` showed an inhibition of over 40%.

`CC(=O)N[C@H](C)c1ccc(Nc2ncc3cc(-c4ccncc4)cc(Cl)c3n2)cc1`: the inhibition is over 40%.

With `CC(C)c1nc(-c2ccc(F)c(NS(=O)(=O)c3c(F)cccc3F)c2)c(-c2ccnc(Nc3ccc(N4CCOCC4)nc3)n2)s1`, the inhibition was over 40%.

The compound `CCCS(=O)(=O)Nc1ccc(F)c(-c2cc3cnc(Nc4ccccc4)nc3n(C)c2=O)c1F` returned an inhibition of over 40%.

Consider `CCCS(=O)(=O)Nc1ccc(F)c(-c2ccc3ccncc3c2)c1F`, for which the inhibition was over 40%.

In turn, `CCCS(=O)(=O)Nc1ccc(F)c(NC(=O)Nc2ncnc3[nH]nc(OC)c23)c1F` gave an inhibition of over 40%.

For the compound `CCCS(=O)(=O)Nc1ccc(Cl)c(C(=O)Nc2cnc3[nH]cc(OC)c3c2)c1F`, the inhibition is over 40%.

For `CC(=O)N(C)c1ccc(Nc2ncc3cc(-c4ccncc4)ccc3n2)cc1`, the inhibition was over 40%.

The next experiment concerns the target Serine/threonine-protein kinase B-raf (Homo sapiens, UniProt P15056, V600E). As to the kind of experiment: Inhibition of B-Raf V600E mutant (unknown origin) using fluorescein-MAP2K1 as substrate after 1 hr by electrophoretic assay.
`CCCS(=O)(=O)Nc1ccc(F)c(C(=O)Nc2ccc(N)nc2)c1F` returned an IC50 of 0.917 to 0.92 µM.

As to `CCCS(=O)(=O)Nc1ccc(Cl)c(C(=O)Nc2cnc3[nH]ccc3c2)c1F`, inhibition was half-maximal at 0.0063 µM (IC50).

As for `O=c1c(O)c(-c2cc(O)c(O)c(O)c2)oc2cc(O)cc(O)c12` [MYRICETIN], half-maximal inhibition (IC50) required 1.56 µM.

`CCCS(=O)(=O)Nc1ccc(F)c(C(=O)Nc2cnc3[nH]cc(C)c3c2)c1F` came in with a concentration for half-maximal inhibition (IC50) of 0.012 µM.

In the case of `CCCS(=O)(=O)Nc1ccc(F)c(C(=O)Nc2cnc3[nH]cc(N(C)C)c3c2)c1F`, half-maximal inhibition (IC50) required 0.0082 µM.

For the compound `O=c1c(O)c(-c2ccc(O)c(O)c2)oc2cc(O)cc(O)c12` [QUERCETIN], the IC50 turned out to be 7.59 µM.

`CCCS(=O)(=O)Nc1ccc(F)c(C(=O)Nc2cnc3[nH]ccc3c2)c1F` had an IC50 of 0.017 µM.

In the case of `CCCS(=O)(=O)Nc1ccc(F)c(C(=O)Nc2cnc3[nH]cc(Br)c3c2)c1F`, the IC50 lay within 0.0034 to 0.004 µM.

`CCCS(=O)(=O)Nc1ccc(F)c(C(=O)Nc2cnc3[nH]cc(OC)c3c2)c1F` registered an IC50 of 0.0048 µM.

Compound `CCCS(=O)(=O)Nc1ccc(F)c(C(=O)Nc2cnc3[nH]cnc3c2)c1C` gave an IC50 of 0.061 µM.

For the compound `CCCS(=O)(=O)Nc1ccc(F)c(C(=O)Nc2cnc3[nH]ccc3c2)c1C`, half-maximal inhibition (IC50) was put at 0.038 µM.

The compound `CCCS(=O)(=O)Nc1ccc(Cl)c(C(=O)Nc2cnc3[nH]cc(OC)c3c2)c1F` returned an IC50 of 0.0017 µM.
